Reference: patent US8993765B2, “Tetrahydro-azacarboline MCH-1 antagonists, methods of making, and uses thereof” (Albany Molecular Research, Inc., priority 2010, dated 2015)

Legend:
[1] = molecular target: human MCH-1 receptor (Homo sapiens (Human), UniProt Q99705); assay: Binding Assay for Human Melanin-Concentrating Hormone (MCH-1) Receptor; conditions: membranes of CHO-K1 cells expressing human MCH-1 receptor; for Ki: radioligand displacement, Ki by Cheng Prusoff equation, read-out: MCH1 Ki
Experimental: Binding Assay for Human Melanin-Concentrating Hormone (MCH-1) Receptor
Evaluation of the affinity of compounds for the human MCH-1 receptor was accomplished using 4-(3,4,5-tritritiumbenzyloxy)-1-(1-(2-(pyrrolidin-1-yl)ethyl)-1H-indazol-5-yl)pyridin-2(1H)-one and membranes prepared from stable CHO-K1 cells expressing the human MCH-1 receptor obtained from Euroscreen (Batch 1138). Cell membrane homogenates (8.92 μg protein) were incubated for 60 min at 25° C. with […] of the [^3H]-labeled compound in the absence or presence of the test compound in 50 mM Tris-HCl buffer, pH 7.4. Nonspecific binding was determined in the presence of 50 μM 1-(5-(4-cyanophenyl)bicyclo[3.1.0]hexan-2-yl)-3-(4-fluoro-3-(trifluoromethyl)phenyl)-1-(3-(4-methylpiperazin-1-yl)propyl)urea. Following incubation, the samples were filtered rapidly under vacuum through Skatron 11731 filters, pre-soaked in 0.5% polyethylenimine, and washed with ice-cold 50 mM Tris-HCl buffer, pH 7.4, (wash setting 9,9,0) using a Skatron cell harvester. The filters were counted for radioactivity in a liquid scintillation counter (Tri-Carb 2100TR, Packard) using a scintillation cocktail (Ultima Gold MV, Perkin Elmer).
The results are expressed as a percent inhibition of the control radioligand specific binding. The IC50 value (concentration causing a half-maximal inhibition of control specific binding) and Hill coefficient (nH) were determined by non-linear regression analysis of the competition curve using Hill equation curve fitting. The inhibition constant (Ki) was calculated from the Cheng Prusoff equation: (Ki=IC50/(1+(L/KD)), where L=concentration of radioligand in the assay, and KD=affinity of the radioligand for the receptor.

Chain of human MCH-1 receptor (Q99705 whole entry): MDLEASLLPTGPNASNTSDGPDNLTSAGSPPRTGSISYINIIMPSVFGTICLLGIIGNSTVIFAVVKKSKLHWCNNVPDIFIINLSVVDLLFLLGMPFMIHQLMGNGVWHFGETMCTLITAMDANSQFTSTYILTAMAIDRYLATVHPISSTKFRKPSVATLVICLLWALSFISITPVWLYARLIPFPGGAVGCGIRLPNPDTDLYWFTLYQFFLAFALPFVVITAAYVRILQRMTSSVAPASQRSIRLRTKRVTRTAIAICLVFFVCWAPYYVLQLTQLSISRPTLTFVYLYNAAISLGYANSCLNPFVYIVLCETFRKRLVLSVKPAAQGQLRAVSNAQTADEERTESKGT

In the case of `CC1Cc2c(c3ccc(-n4ccc(OCc5ccc(F)cn5)cc4=O)nc3n2C)CN1.Cl` (centres unmarked) [Example 14, 1-(7,9-Dimethyl-5,7,8,9-tetrahydro-6H-pyrido[3′,4′:4,5]pyrrolo[2,3-b]pyridin-2-yl)-4-((5-fluoropyridin-2-yl)methoxy)pyridin-2(1H)-one hydrochloride], the Ki [1] is reported as 25 nM and the melting point is reported as 288 to 292 °C.
In the case of `Cl.Cn1c2c(c3ccc(-n4ccc(OCc5ccc(F)cc5F)cc4=O)nc31)CNCC2` [Example 16, 4-((2,4-Difluorophenyl)methoxy)-1-(9-methyl-5,7,8,9-tetrahydro-6H-pyrido[3′,4′:4,5]pyrrolo[2,3-b]pyridin-2-yl)pyridin-2(1H)-one hydrochloride], the Ki [1] is reported as 8.3 nM and the melting point is reported as 206 to 210 °C.
In the case of `Cl.O=c1cc(OCc2ccc(F)cn2)ccn1-c1ccc2c(c1)nc1n2CCNC1` [Example 19, 4-((5-Fluoropyridin-2-yl)methoxy)-1-(1,2,3,4-tetrahydropyrazino[1,2-a]benzimidazol-8-yl)pyridin-2(1H)-one hydrochloride], the inhibition at 1 µM ([1]; @ 1 uM test compound, read-out: MCH1 percent inhibition of control radioligand specific binding) is reported as 72% and the melting point is reported as 245 to 255 °C.
With `Cl.O=c1cc(OCc2ccccc2)ccn1-c1ccn2c3c(nc2c1)CCNC3` [Example 22, 4-(Benzyloxy)-1-(1,2,3,4-tetrahydropyrido[4′,3′:4,5]imidazo[1,2-a]pyridin-7-yl)pyridin-2(1H)-one hydrochloride] the Ki [1] was 21 nM and the melting point was 280 °C (dec.).
